Measured values: ChEMBL document CHEMBL1131253, “A pyridoxine cyclic phosphate and its 6-azoaryl derivative selectively potentiate and antagonize activation of P2X1 receptors” (J Med Chem, 1998)

Key:
P2X purinoceptor 3 = molecular target: T1, P2X purinoceptor 3 (Rattus norvegicus, UniProt P49654); assay: Compound was tested in a functional ion channel assay of ATP-induced current at recombinant rat P2X3 receptor expressed in Xenopus oocytes.; type: cell-based, Oocyte
T1 sequence (P49654 whole entry): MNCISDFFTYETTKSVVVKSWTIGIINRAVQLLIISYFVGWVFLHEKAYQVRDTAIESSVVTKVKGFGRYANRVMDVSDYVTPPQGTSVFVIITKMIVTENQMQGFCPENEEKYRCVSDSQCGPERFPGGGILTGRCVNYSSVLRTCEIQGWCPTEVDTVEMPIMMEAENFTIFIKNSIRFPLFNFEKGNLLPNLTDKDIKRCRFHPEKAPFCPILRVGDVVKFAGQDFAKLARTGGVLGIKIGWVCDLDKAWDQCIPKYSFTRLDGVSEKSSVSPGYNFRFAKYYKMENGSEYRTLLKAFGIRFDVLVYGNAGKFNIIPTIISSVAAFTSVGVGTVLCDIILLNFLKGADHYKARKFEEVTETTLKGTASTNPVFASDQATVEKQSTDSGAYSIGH

P2X purinoceptor 1 = molecular target: T2, P2X purinoceptor 1 (Rattus norvegicus, UniProt P47824); assay: Compound was tested in a functional ion channel assay of ATP-induced current at recombinant rat P2X1 receptor expressed in Xenopus oocytes.; type: cell-based, Oocyte
T2 sequence (P47824 whole entry): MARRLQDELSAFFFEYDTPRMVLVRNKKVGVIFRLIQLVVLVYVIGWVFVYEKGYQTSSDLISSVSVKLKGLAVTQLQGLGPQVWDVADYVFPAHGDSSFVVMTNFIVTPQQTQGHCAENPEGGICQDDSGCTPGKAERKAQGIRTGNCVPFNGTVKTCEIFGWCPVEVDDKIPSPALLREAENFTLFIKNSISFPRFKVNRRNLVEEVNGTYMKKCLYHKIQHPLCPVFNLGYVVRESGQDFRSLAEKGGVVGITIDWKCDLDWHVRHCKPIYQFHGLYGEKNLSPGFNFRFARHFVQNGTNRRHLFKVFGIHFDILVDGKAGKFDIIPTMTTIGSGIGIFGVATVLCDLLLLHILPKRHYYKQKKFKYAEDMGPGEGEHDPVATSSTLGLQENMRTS

IC50 (P2X purinoceptor 3) | IC50 (P2X purinoceptor 1) | EC50 (P2X purinoceptor 1) | SMILES
58.3 µM | 10.2 µM | – | Cc1nc(/N=N/c2cc(S(=O)(=O)O)ccc2S(=O)(=O)O)c2c(c1O)COP(=O)(O)OC2
0.24 µM | 0.0985 µM | – | Cc1nc(/N=N/c2ccc(S(=O)(=O)O)cc2S(=O)(=O)O)c(COP(=O)(O)O)c(C=O)c1O
– | – | 5.9 µM | Cc1ncc2c(c1O)COP(=O)(O)OC2
– | 0.0425 µM | – | Cc1nc(/N=N/c2cc(S(=O)(=O)O)ccc2S(=O)(=O)O)c(COP(=O)(O)O)c(C=O)c1O [ISOPPADS]
